We go through four molecules from PubChem BioAssay AID1259407 (Chemical Carcinogenesis Research Information System (CCRIS), 2018).

This series deals with CCRIS mutagenicity, Ames/micronucleus/aberration tests. Kind of series: CCRIS mutagenicity studies.
Setting [1] is: Test System: AMES SALMONELLA TYPHIMURIUM, Strain/Indicator: TA98, Metabolic Activation: NONE, Method: STANDARD PLATE.
The mark [2] stands for this setting: Test System: AMES SALMONELLA TYPHIMURIUM, Strain/Indicator: TA100, Metabolic Activation: NONE, Method: STANDARD PLATE.
[3] abbreviates: Test System: AMES SALMONELLA TYPHIMURIUM, Strain/Indicator: TA1537, Metabolic Activation: NONE, Method: STANDARD PLATE.
Where [4] appears, read: Test System: AMES SALMONELLA TYPHIMURIUM, Strain/Indicator: TA100, Metabolic Activation: RAT, LIVER, S-9, AROCLOR 1254, Method: STANDARD PLATE.
Where [5] appears, read: Test System: AMES SALMONELLA TYPHIMURIUM, Strain/Indicator: TA98, Metabolic Activation: RAT, LIVER, S-9, AROCLOR 1254, Method: STANDARD PLATE.
Setting [6] is: Test System: AMES SALMONELLA TYPHIMURIUM, Strain/Indicator: TA102, Metabolic Activation: NONE, Method: STANDARD PLATE.
[7] abbreviates: Test System: AMES SALMONELLA TYPHIMURIUM, Strain/Indicator: TA102, Metabolic Activation: RAT, LIVER, S-9, AROCLOR 1254, Method: STANDARD PLATE.
Where [8] appears, read: Test System: MOUSE LYMPHOMA, Strain/Indicator: L5178Y (TK+/TK-), Metabolic Activation: NONE, Method: SUSPENSION/PLATE.

Calls of active or inactive are those of the source. How the calls were made is not given here.

Turning to `O=C(CCl)Nc1snc2ccccc12`, the mutagenic call is, setting by setting: under setting [1], “inactive; negative”; (Test System: AMES SALMONELLA TYPHIMURIUM, Strain/Indicator: TA98, Metabolic Activation: S-9, Method: STANDARD PLATE) “active; positive”; under setting [2], “inactive; negative”; (Test System: AMES SALMONELLA TYPHIMURIUM, Strain/Indicator: TA100, Metabolic Activation: S-9, Method: STANDARD PLATE) “active; positive”; (Test System: AMES SALMONELLA TYPHIMURIUM, Strain/Indicator: TA1535, Metabolic Activation: NONE, Method: STANDARD PLATE) “inactive; negative”; (Test System: AMES SALMONELLA TYPHIMURIUM, Strain/Indicator: TA1535, Metabolic Activation: S-9, Method: STANDARD PLATE) “inactive; negative”. In addition, the mutagenic call is “active; positive” under setting [3] and “active; positive” (Test System: AMES SALMONELLA TYPHIMURIUM, Strain/Indicator: TA1537, Metabolic Activation: S-9, Method: STANDARD PLATE).

Consider `OCc1ccc2c(CO)c3ccc4ccccc4c3nc2c1`, for which the mutagenic call under setting [4] is “inactive; negative”.

Turning to `CNc1ccc(NCCO)c2c1C(=O)c1ccccc1C2=O`, the mutagenic call is, setting by setting: under setting [1], “inactive; negative”; under setting [5], “active; positive”; under setting [2], “inactive; negative”; under setting [4], “inactive; negative”; under setting [6], “inactive; negative”; under setting [7], “active; positive”. In addition, the mutagenic call runs as follows: (Test System: AMES SALMONELLA TYPHIMURIUM, Strain/Indicator: TA104, Metabolic Activation: NONE, Method: STANDARD PLATE) “inactive; negative”; under setting [3], “inactive; negative”; (Test System: AMES SALMONELLA TYPHIMURIUM, Strain/Indicator: TA1537, Metabolic Activation: RAT, LIVER, S-9, AROCLOR 1254, Method: STANDARD PLATE) “active; positive”; (Test System: AMES SALMONELLA TYPHIMURIUM, Strain/Indicator: TA1538, Metabolic Activation: NONE, Method: STANDARD PLATE) “inactive; negative”; (Test System: MOUSE LYMPHOMA, Strain/Indicator: L5178Y (TK+/TK-), Metabolic Activation: NONE, Method: SUSPENSION PLATE) “active; positive”; under setting [8], “active; positive”. The mutagenic call (Test System: MOUSE LYMPHOMA, Strain/Indicator: L5178Y (TK+/TK-), Metabolic Activation: RAT, LIVER, S-9, AROCLOR 1254, Method: SUSPENSION PLATE) is “active; positive”.

For the molecule `COc1ccc(CN(CCN(C)C)c2ccccn2)cc1`, the mutagenic call reads like this: (Test System: AMES SALMONELLA TYPHIMURIUM, Strain/Indicator: TA97, Metabolic Activation: NONE, Method: STANDARD PLATE) “inactive; negative”; (Test System: AMES SALMONELLA TYPHIMURIUM, Strain/Indicator: TA97, Metabolic Activation: RAT, LIVER, S-9, AROCLOR 1254, Method: STANDARD PLATE) “inactive; negative”; (Test System: AMES SALMONELLA TYPHIMURIUM, Strain/Indicator: TA98, Metabolic Activation: HAMSTER, LIVER, S-9, AROCLOR 1254 (10%), Method: PREINCUBATION) “inactive; negative”; (Test System: AMES SALMONELLA TYPHIMURIUM, Strain/Indicator: TA98, Metabolic Activation: NONE, Method: PREINCUBATION) “inactive; negative”; under setting [1], “inactive; negative”; (Test System: AMES SALMONELLA TYPHIMURIUM, Strain/Indicator: TA98, Metabolic Activation: RAT, LIVER, S-9, AROCLOR 1254 (10%), Method: PREINCUBATION) “inactive; negative”. Also, the mutagenic call is, setting by setting: under setting [5], “inactive; negative”; (Test System: AMES SALMONELLA TYPHIMURIUM, Strain/Indicator: TA100, Metabolic Activation: HAMSTER, LIVER, S-9, AROCLOR 1254 (10%), Method: PREINCUBATION) “inactive; negative”; (Test System: AMES SALMONELLA TYPHIMURIUM, Strain/Indicator: TA100, Metabolic Activation: NONE, Method: PREINCUBATION) “inactive; negative”; under setting [2], “inactive; negative”; (Test System: AMES SALMONELLA TYPHIMURIUM, Strain/Indicator: TA100, Metabolic Activation: RAT, LIVER, S-9, AROCLOR 1254 (10%), Method: PREINCUBATION) “inactive; negative”; under setting [4], “inactive; negative”. Besides, the mutagenic call under setting [6] was “inactive; negative”; the mutagenic call under setting [7] was “inactive; negative”; the mutagenic call (Test System: AMES SALMONELLA TYPHIMURIUM, Strain/Indicator: TA1535, Metabolic Activation: HAMSTER, LIVER, S-9, AROCLOR 1254 (10%), Method: PREINCUBATION) is “inactive; negative”; the mutagenic call (Test System: AMES SALMONELLA TYPHIMURIUM, Strain/Indicator: TA1535, Metabolic Activation: NONE, Method: PREINCUBATION) was “inactive; negative”; the mutagenic call (Test System: AMES SALMONELLA TYPHIMURIUM, Strain/Indicator: TA1535, Metabolic Activation: RAT, LIVER, S-9, AROCLOR 1254 (10%), Method: PREINCUBATION) was “inactive; negative”; the mutagenic call (Test System: AMES SALMONELLA TYPHIMURIUM, Strain/Indicator: TA1537, Metabolic Activation: HAMSTER, LIVER, S-9, AROCLOR 1254 (10%), Method: PREINCUBATION) is “inactive; negative”. The mutagenic call (Test System: AMES SALMONELLA TYPHIMURIUM, Strain/Indicator: TA1537, Metabolic Activation: NONE, Method: PREINCUBATION) was “inactive; negative”; the mutagenic call (Test System: AMES SALMONELLA TYPHIMURIUM, Strain/Indicator: TA1537, Metabolic Activation: RAT, LIVER, S-9, AROCLOR 1254 (10%), Method: PREINCUBATION) is “inactive; negative”; the mutagenic call under setting [8] is “inactive; negative”; the mutagenic call (Test System: MOUSE LYMPHOMA, Strain/Indicator: L5178Y (TK+/TK-), Metabolic Activation: RAT, LIVER, S-9, AROCLOR 1242 AND 1254 (2:1 MIXTURE), Method: SUSPENSION/PLATE) is “active; positive”.
